Tests used:
EGFR = target: T1, EGFR (Homo sapiens, UniProt P00533); assay: EGFR in-cell Western (ICW) screening protocol (EGFR inhibition assay); assay type: cell-based; settings: % Inhibition of EGF dependent EGFR phosphorylation in A431 cells, compound 125 μM in assay
T1 construct: host or cells: A431
Procedure, shortened: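 In-cell Western read-out: fixed A431 cells were co-stained for total EGFR and phospho-EGFR (Tyr1173; some runs Tyr1045). Before fixation, cells were serum-starved for 2 h, exposed to compound for 4 h, then given EGF for 10 min, usually at 10 ng/ml final (6.6 or 12.5 ng/ml in some runs).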

EGF binding site = target: T2, EGF binding site (Rattus norvegicus, UniProt G3V6K6); assay: Inhibition of [125I]EGF binding (EGF inhibitor assay, NovaScreen); settings: determined at 25 μM; rat liver membranes; result in words
T2 construct: Receptor source was rat liver membranes; tissue NovaScreen BioSciences; host or cells: rat liver membranes
Procedure: Identified compounds, representing various pharmacophore models, were tested for ability to inhibit EGFR at 25 μM.
AD4-compounds were identified using pharmacophore models (see Example 3, Example 4) and then were docked with the binding site of EGFR (SEQ ID NO: 1) that is recognized by defined CDRs of cetuximab. The inhibition of epidermal growth factor binding by AD4-compounds was then determined (NovaScreen BioSciences, Hanover, Md.). Inhibition of EGF binding was determined at 25 μM concentration.
Receptor source was rat liver membranes. The radioligand was [^125I]EGF ([…]) at a final ligand concentration of 0.36 nM. A non-specific determinant was used as EGF—[100 nM]. The reference compound and positive control was EGF. Reactions were carried out in 10 mM HEPES (pH 7.4) containing 0.1% BSA at 25° C. for 60 minutes. The reaction was terminated by rapid vacuum filtration onto glass fiber filters. Radioactivity trapped onto the filters was determined and compared to control values to ascertain any interactions of test compounds with the EGF binding site. The EGF inhibitor assays were modified from, for example, Mukku (1984) J. Biol. Chem. 259, 6543-6546; Duh et al. (1990) World J. Surgery 14, 410-418; Lokeshwar et al. (1989) J. Biol. Chem. 264(32), 19318-19326.

T2 sequence (G3V6K6 25-1209): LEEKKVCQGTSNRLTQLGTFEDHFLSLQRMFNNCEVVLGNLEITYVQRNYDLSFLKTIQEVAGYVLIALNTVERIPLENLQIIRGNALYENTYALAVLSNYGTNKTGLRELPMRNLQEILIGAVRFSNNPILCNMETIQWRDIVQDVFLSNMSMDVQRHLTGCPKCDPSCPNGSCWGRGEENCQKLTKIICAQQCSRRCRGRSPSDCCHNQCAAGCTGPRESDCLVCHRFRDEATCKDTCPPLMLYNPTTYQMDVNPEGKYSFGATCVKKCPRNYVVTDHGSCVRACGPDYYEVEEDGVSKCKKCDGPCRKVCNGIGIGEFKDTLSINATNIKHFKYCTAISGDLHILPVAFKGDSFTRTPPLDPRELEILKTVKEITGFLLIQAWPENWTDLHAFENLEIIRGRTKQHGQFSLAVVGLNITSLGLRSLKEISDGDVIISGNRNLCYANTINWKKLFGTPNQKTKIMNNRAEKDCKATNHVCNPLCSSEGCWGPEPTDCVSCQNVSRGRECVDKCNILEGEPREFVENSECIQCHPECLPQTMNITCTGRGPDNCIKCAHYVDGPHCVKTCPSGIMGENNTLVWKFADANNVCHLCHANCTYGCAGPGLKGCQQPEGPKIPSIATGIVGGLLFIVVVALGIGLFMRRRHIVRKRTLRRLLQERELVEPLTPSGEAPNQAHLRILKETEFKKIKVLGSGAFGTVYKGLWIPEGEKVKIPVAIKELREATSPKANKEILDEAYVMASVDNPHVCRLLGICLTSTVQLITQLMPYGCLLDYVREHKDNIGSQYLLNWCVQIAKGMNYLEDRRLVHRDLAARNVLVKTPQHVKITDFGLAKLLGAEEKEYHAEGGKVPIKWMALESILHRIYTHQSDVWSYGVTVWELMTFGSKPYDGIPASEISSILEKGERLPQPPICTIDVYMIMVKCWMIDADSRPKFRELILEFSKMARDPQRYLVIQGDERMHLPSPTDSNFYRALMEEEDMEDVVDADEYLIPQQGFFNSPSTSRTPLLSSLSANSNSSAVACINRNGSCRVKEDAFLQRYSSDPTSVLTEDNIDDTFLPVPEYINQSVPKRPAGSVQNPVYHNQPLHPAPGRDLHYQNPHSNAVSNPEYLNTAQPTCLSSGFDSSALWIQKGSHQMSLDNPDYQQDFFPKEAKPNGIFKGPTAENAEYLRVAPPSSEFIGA
T1 sequence (P00533 25-1210): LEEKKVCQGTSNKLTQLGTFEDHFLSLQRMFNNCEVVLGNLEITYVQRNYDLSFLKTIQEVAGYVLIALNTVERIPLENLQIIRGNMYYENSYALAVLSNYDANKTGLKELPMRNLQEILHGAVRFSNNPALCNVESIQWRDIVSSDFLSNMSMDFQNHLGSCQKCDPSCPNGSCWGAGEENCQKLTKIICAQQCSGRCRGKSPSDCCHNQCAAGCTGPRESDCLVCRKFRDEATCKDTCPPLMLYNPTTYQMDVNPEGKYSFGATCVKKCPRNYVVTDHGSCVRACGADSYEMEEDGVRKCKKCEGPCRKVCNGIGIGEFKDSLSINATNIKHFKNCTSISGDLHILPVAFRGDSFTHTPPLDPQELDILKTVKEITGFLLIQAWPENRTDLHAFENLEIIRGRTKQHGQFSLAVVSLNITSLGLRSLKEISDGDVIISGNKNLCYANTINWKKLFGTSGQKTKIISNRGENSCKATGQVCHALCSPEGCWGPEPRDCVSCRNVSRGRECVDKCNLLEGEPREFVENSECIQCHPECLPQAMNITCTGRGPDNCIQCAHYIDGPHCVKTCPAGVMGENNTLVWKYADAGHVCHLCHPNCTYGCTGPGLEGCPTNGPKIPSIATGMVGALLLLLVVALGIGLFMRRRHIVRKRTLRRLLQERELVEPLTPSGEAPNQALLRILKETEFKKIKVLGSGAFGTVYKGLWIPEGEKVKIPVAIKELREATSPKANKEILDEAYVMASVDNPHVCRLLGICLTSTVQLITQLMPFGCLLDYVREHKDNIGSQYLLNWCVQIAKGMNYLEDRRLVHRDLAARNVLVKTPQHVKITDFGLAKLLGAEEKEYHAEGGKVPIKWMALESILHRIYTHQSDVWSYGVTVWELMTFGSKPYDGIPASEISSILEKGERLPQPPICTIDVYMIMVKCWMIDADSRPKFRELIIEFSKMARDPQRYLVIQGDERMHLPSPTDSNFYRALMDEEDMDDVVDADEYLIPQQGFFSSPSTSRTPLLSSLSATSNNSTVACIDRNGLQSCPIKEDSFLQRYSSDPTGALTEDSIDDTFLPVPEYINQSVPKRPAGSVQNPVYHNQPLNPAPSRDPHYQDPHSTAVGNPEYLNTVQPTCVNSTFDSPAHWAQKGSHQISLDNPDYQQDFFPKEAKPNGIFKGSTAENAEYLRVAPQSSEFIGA

Row | Compound | ICW Screen (EGFR; Table 11) | inhibition of epidermal growth factor binding to its receptor (EGF binding site) | ICW assay (EGFR; Table 10)
1 | CCc1cc2c(CN3CCN(Cc4ccc5c(c4)OCO5)CC3)cc(=O)oc2cc1O [AD4-1734] | 65.9 | inhibitor of epidermal growth factor binding to its receptor | –
2 | Cc1cc(C)cc(NS(=O)(=O)c2ccc(NC(=S)Nc3ccccc3)cc2)c1 [AD4-11091] | – | inhibitor of epidermal growth factor binding to its receptor | 112.858
